Key:
recombinant human UCK2 = molecular target: T1, recombinant human UCK2 (Homo sapiens, UniProt Q9BZX2); test: In vitro enzyme activity assay with recombinant human UCK2 (PK/LDH-coupled, UV 340 nm); type: biochemical
T1 construct: 6xHis (C); made in house; host or cells: E. coli BL21(DE3)
T1 sequence (Q9BZX2 1-261): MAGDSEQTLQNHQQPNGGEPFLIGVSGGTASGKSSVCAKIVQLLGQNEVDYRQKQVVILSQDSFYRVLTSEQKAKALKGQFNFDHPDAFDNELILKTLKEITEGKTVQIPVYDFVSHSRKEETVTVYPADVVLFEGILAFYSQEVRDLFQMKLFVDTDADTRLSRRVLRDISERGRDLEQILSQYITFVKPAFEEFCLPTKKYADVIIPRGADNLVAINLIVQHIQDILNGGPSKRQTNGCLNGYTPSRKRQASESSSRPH
Source text: In order to guide our SAR studies, we developed an enzymatic assay to evaluate the inhibitory effect of each CPU analog against recombinant human UCK2, which was expressed and purified in E. coli. A continuous assay system was optimized by coupling UCK2 activity to the pyruvate kinase (PK) reaction, which in turn was coupled to lactate dehydrogenase (LDH). Overall reaction progress was continuously monitored by detecting the UV absorption change at 340 nm, which was correlated with the ATP consumption by UCK2. The effect of 250 μM of each CPU analog on UCK2 activity was evaluated in the presence of 50 μM uridine. […] We then individually measured the steady state kinetic parameters of UCK2 using uridine, CPU and 5-F-CPU as substrates. Their KM values were 86, 25, and 41 μM, and their kcat/KM values were 2.6×10^5, 1.5×10^5, and 7.3×10^4 s^−1 M^−1 (FIG. 5B).
Cloning, expression and purification of recombinant human UCK2 and CMPK1: Uridine cytidine kinase 2 (UCK2) was cloned into the pET-21a(+) vector using Ndel and Notl as restriction sites. […] The resulting plasmid was transformed into E. coli BL21(DE3) cells by electroporation, recovered in SOC at 37° C. for 1 h and plated onto LB agar plates with kanamycin overnight at 37° C. A single, isolated colony was inoculated into 30 mL LB supplemented with 50 μg/mL kanamycin and grown at 37° C. with shaking for 15 h. The next day, these cells were used to inoculate 1 L autoclaved LB with 50 μg/mL kanamycin. The flask was shaken at 37° C. When an optical density (OD600) of 0.7 was reached, protein expression was induced with 0.5 mM isopropyl β-D-1-thiogalactopyranoside (IPTG). The temperature was changed to 18° C. and flasks were shaken for an additional 15 h. The cell pellets were collected by spinning the media at 5000 rpm for 10 min. The pellets obtained were frozen by liquid nitrogen and stored in −80° C. for protein purification. Cell pellets were thawed and resuspended in lysis buffer containing Tris (40 mM, pH 7.5), NaCl (10 mM), imidazole (10 mM), DTT (1 mM). Cells were lysed by sonication and centrifuged at 25,000 g for 1 h. The supernatant was incubated with a slurry of Ni-NTA resin for 1 h at 4° C. and loaded onto a column. The nickel column wash buffer was Tris (40 mM, pH 7.5), NaCl (10 mM), DTT (1 mM) and each wash step contained increasing concentrations of imidazole (10, 50, or 250 mM). After SDS-PAGE confirmation of the protein fractions, protein was further purified using fast protein liquid chromatography (FPLC) using buffer A (50 mM Tris-HCl pH 8, 1 mM dithiothreitol (DTT), 10% glycerol) and elution buffer B (50 mM Tris-HCl pH 8, 1mM dithiothreitol (DTT), 10% glycerol with 500 mM NaCl) with changing gradient over a 20 minute from 2% to 100% Buffer B. FPLC eluents containing the protein was concentrated using Am icon centrifugal filter with 3K cut-off and the enzyme was stored in storage buffer (50 mM Tris-HCl pH 7.5, 10% glycerol). Human cytidine monophosphate kinase 1 (CMPK1) was purified as previously described (Deans et al., 2016).
In vitro enzyme activity assays with recombinant human UCK2: To continuously monitor reaction progress spectrophotometrically, ATP hydrolysis was coupled to NADH oxidation via pyruvate kinase (PK) and lactate dehydrogenase (LDH). Reactions were conducted at room temperature in 100 μL in 96-well plates (Greiner Bio-One, UV-Star, Half Area). Mixtures contained 20 mM HEPES (pH 7.2), 100 mM KCl, 2 mM MgCl2, 300 μM ATP, 0-500 μM uridine, 0-500 μM CPU analogs, 10 nM UCK2, 1 mM phosphoenolpyruvate, 500 μM NADH and 20 units/mL of PK and LDH. Progress was monitored in the linear region using a Biotek Synergy HT and kinetic and inhibition constants were determined using GraphPad Prism 7 (GraphPad Software).

[1] = tested on: intracellular uridine and cytidine nucleotide levels; test: LC-MS/MS analysis of intracellular nucleotides in A549 cells; type: cell-based; conditions: 250 μM with 1 μM GSK983, 5 μM uridine, 6 h
Method: FIG. 7. LC-MS analysis of intracellular nucleotides. (A) LC-MS analysis of intracellular uridine and cytidine nucleotide levels after 6 h treatments. In all assays, the culture medium was supplemented with 5 μM uridine and 1 μM GSK983. Error bars represent ±S.D. of two replicates. (B) LC-MS detection of mono-, di- and tri-phosphates of CPU and 5-F-CPU in cells. LC-MS/MS was performed on an Agilent 1290 infinity II LC system tandem with 6370 triple quad mass spectrometer using ion pairing chromatography. LC separation was performed at 40° C. with a solvent flow rate of 0.25 mL/min on a Zorbax RRHD Extended-C18 column (2.1×150 mm, 1.8 μM). Buffer A contained 97% H2O, 3% MeOH, 5 mM tributylamine, 5.5 mM Acetic acid and 1 μM medronic acid with pH=5.0; Buffer B contains ca. 100% MeOH, 5 mM tributylamine, 5.5 mM Acetic acid and 5 μM medronic acid with pH=7.0 The initial mobile phase composition was 100% solvent A, and a constant or linear gradient was applied after sample injection with eluent B varying as follows: 0% at 2.5 min, 20% at 7.5 min, 45% at 14 min, 99% at 20 to 23 min, and 0% from 23.1 to 27.1 min. […] Samples were measured in the negative ESI mode with capillary voltage at −3.5 kV. […]
With optimized sampling and detection method in hand, pyrimidine nucleotide levels were measured in cells cultured with either 250 μM CPU, 5-F-CPU or 5′-F-CPU in combination with 1 μM GSK983 (FIG. 7A). […]

DENV-2 virus [2] = test: Pilot antiviral assay, DENV-Luc replication in A549 cells (FIG. 2); type: cell-based, dengue serotype 2 (DENV-2) strain 16681; conditions: alone, 20 μM exogenous uridine
Method: We therefore focused our efforts on evaluating CPU in combination with GSK983. Using an infectious clone of dengue serotype 2 (DENV-2) strain 16681 engineered to express a luciferase reporter, the efficacy and cytotoxicity of combinations of GSK983 and CPU were assessed in infected or uninfected cultures of the A549 lung carcinoma cell line (FIG. 2). […] However, a combination of 0.2 μM GSK and 250 μM CPU inhibited ca. 50% of virus replication.
(§1) DENV-Luc reporter virus generation: The design of the pDENV-Luc infectious clone derived from dengue serotype 2 (DENV-2) strain 16681 was described in detail by Marceau et al (Marceau et al., 2016). The plasmid was linearized with Xbal and in vitro transcribed into the genomic RNA of DENV-Luc virus using the T7 Megascript Kit (Ambion) in the presence of m7G(5′)ppp(5′)G RNA Cap Structure Analog (NEB). 5 μg DENV-Luc RNA was electroporated into 2×10^6 Vero cells. The transfected cells were resuspended with Dulbecco's modified Eagle's medium (DMEM; Invitrogen) with 10% FBS and 100 U/ml penicillin-streptomycin and transferred into a T-175 flask incubated at 37° C. with 5% CO2. Supernatants were collected and replenished with fresh medium every 24 h from day 17 to 24 post-transfection, pooled together, clarified by centrifugation and stored in aliquots at −80° C. The amount of infectious DENV-Luc virus in the stock was titrated using the TCID50 assay and calculated by the Spearman & Kärber algorithm as described previously (Hierholzer and Killington, 1996).
Pilot Antiviral Assays (for FIG. 2): A549 cells were plated overnight at 20,000 cells/well in 24-well plates in complete DMEM and incubated for 24 h at 37° C. Cell were then treated with pyrimidine de novo synthesis and/or salvage inhibitors in DMEM supplemented with 20 μM uridine. Four hours after drug addition, cells were infected with DENV-2 virus at a MOI=0.01. After 48 h, DENV-Luc replication was monitored by the production of Renilla luciferase, which was measured using the Renilla-Glo Luciferase Assay System (Promega) according to the specifications of the manufacturer. For the accompanying cell viability assay, A549 cells were seeded into 24-well plates at a density of 20,000 cells/well incubated for 24 h at 37° C. Cell were then treated with pyrimidine de novo synthesis and/or salvage inhibitors in DMEM supplemented with 20 μM uridine. Following 48h treatment, cells were harvested, and the density of viable cells was determined by flow cytometry (FSC/SSC) using a BD Accuri C6 Flow Cytometer.

DENV-2 virus [3] = test: DENV antiviral assay, DENV-Luc replication in A549 cells (FIGS. 8 and 9); type: cell-based, dengue serotype 2 (DENV-2) strain 16681; conditions: single agents, 20 μM uridine
Method: as §1
DENV antiviral assays (For FIGS. 8 and 9): A549 cells were plated overnight at 5,000 cells/well in 96-well plates in complete DMEM and incubated for 24 h at 37° C. Cells were then treated with pyrimidine de novo synthesis inhibitors, and/or salvage inhibitors, and/or R1479 in DMEM supplemented with 20 μM uridine. Four hours after drug addition, cells were infected with DENV-2 virus at a MOI=0.1. After 72 h, DENV-Luc replication was monitored by the production of Renilla luciferase, which was measured using the Renilla-Glo Luciferase Assay System (Promega) according to the specifications of the manufacturer. For the accompanying cell viability assay, A549 cells were seeded at 5,000 cells/well in 96-well plates in complete DMEM and incubated for 24 h at 37° C. Cell were then treated with pyrimidine de novo synthesis inhibitors, and/or salvage inhibitors, and/or R1479 in DMEM supplemented with 20 μM uridine. Following 48 h treatment, cell viability was monitored by ATP levels, which was measured using the CellTiter-Glo Luciferase Assay System (Promega) according to the specifications of the manufacturer.

[4] = tested on: a variety of unrelated viruses; conditions: Harvey et al. (2009); read-out: EC50, replication of a variety of unrelated viruses in vitro; cited from earlier work

O=c1ccn([C@@H]2C=C(CF)[C@@H](O)[C@H]2O)c(=O)[nH]1 [5′-F-CPU, 1-((1R,4R,5S)-3-(fluoromethyl)-4,5-dihydroxycyclopent-2-en-1-yl)pyrimidine-2,4(1H,3H)-dione]
UCK2 substrate or not (ATP consumption) (recombinant human UCK2; 250 μM analog in the presence of 50 μM uridine): inhibitors but not substrates | Ki (recombinant human UCK2; competitive inhibitors of UCK2, Lineweaver-Burk analysis): 170 µM | depletion of intracellular uridine and cytidine nucleotide levels [1]: did not deplete

O=C(N[C@@H]1CCCc2c1[nH]c1ccc(Cl)cc21)c1ccccn1 [GSK983]
inhibition of replication of DENV-2 virus, single agent (DENV-2 virus [2]): neither GSK nor CPU alone inhibited replication | antiviral activity as single agent (DENV-2 virus [3]): neither GSK983 nor CPU were effective | EC50 [4]: 0.005 to 0.02 µM

— patent US20220280513A1, “ENHANCING THE ANTIVIRAL EFFICACY OF RNA VIRUS INHIBITION BY COMBINATION WITH MODULATORS OF PYRIMIDINE METABOLISM” (The Board of Trustees of the Leland Stanford Junior …, priority 2019, published 2022)
